Laboratory results reported in patent publication US10154992B2, “Compounds and methods for treating HIV infection” (THE REGENTS OF THE UNIVERSITY OF CALIFORNIA, priority 2016, dated 2018).
Values after ≈ are worked out from the molar mass of the structure shown. Where two headings read alike, the source gives them in different places.

What was measured:
[1] = test system: HIV RRE (Rev-dependent) reporter; experiment: Rev reporter assay in 293T cells, p24 ELISA; type: cell-based; conditions: Human immunodeficiency virus 1, HEK-293T, Table 2
Experimental: Rev reporter assay. In the Rev reporter assay, 293T cells were transfected with an HIV RRE (Rev-dependent) reporter plus a pSV2 Rev expression plasmid (Hope, T. J., et al. (1990) Proc. Natl. Acad. Sci. USA 87, 7787-7791). Compounds were incubated with the cells for 48 hours and reporter activity was assessed by p24 ELISA. Leptomycin B, an inhibitor of the Crm1 pathway that inhibits Rev-dependent export, was included as a control. The cytotoxicity of each compound was determined in parallel via MTT-based cell viability assays.

[2] = Human liver microsome stability; type: in vitro ADME; conditions: human liver microsomes; read-out: HLM T1/2
Description: The more lipophilic analogs 4a and 4e also appear more prone to oxidative metabolism in the presence of human liver microsomes. This is perhaps unsurprising given the presence of methoxyphenyl (4a) and benzylic methylene (4e) functions, both potential sites of oxidative metabolism.

[3] = Caco-2 permeability; type: in vitro ADME; conditions: human
Description: (§1) We next evaluated analogs 2b, 2f, 4a, and 4e in a panel of standard in vitro ADME assays to assess drug-like properties and the potential for efficacy in animals.

[4] = test system: HIV-1 isolate NL4-3; experiment: Virus spreading / replication assay in Jurkat cells, p24 ELISA; type: cell-based
Experimental: (§2) Virus spreading assay. Jurkat (E6-1) cells (NIH AIDS Reagent Program) were cultured in RPMI media supplemented with 25 mM HEPES pH 7.4, 10% heat-inactivated fetal calf serum (Hyclone, Waltham Mass.), and 1% penicillin/streptomycin. 2.5×10^5 Jurkat cells were inoculated with 250 pg p24 in 250 μl media in a 96-well flat bottom polystyrene cell culture microplate. Input virus was removed after 18 hours via washing cells phosphate-buffered saline (PBS). Cells were resuspended in 250 μl of media containing compounds at the described concentrations. Cells were incubated at 37° C., 5% CO2 and supernatant samples were removed every 48 hours and replaced with fresh media containing the compounds. Viral replication was quantified using ELISA to quantify p24 viral capsid protein in the culture supernatant. Mouse monoclonal and rabbit polyclonal α-p24 antibodies used in the ELISA were obtained from the NIH AIDS Reagent Program. Toxicity was monitored using the MTT cell viability assay (Mosmann, T. (1983). J Immunol Methods 65, 55-63).

[5] = test system: A7854G mutant (RRE) virus; experiment: Replication of RRE A7854G resistant virus; type: cell-based, HIV
[6] = Aqueous solubility pH 7.4; type: physicochemical; conditions: aqueous solution, pH 7.4, pH 7.4, aqueous buffer
Description: as §1

[7] = test system: HIV-1 isolate NL4-3 deleted for Vpu; experiment: Replication assay in Jurkat cells with Vpu-deleted virus; type: cell-based; conditions: Human immunodeficiency virus 1, NL43, Jurkat, read-out: IC50 value for isolate NL4-3 deleted for Vpu
Experimental: FIG. 10. In embodiments, HIV viruses that are defective or deleted for Vpu are resistant to the compounds described herein. Replication assays with HIV-1 isolate NL4-3 or NL4-3 deleted for Vpu in Jurkat cells. Replication spreading assays were performed with compound at doses ranging from 1 nM to 316 nM in triplicate. Supernatants were collected every 48-72 hours and p24 values were determined by ELISA. FIG. 10 corresponds to analog 4e with HIV-1 isolate NL4-3 in Jurkat cells and with HIV-1 isolate NL4-3 deleted for Vpu in Jurkat cells.
as §2, with “Cells were incubated at 37° C., 5% CO2 and supernatant samples were removed every 48 hours and replaced with fresh media containing the compounds.” left out, “Mouse monoclonal and rabbit polyclonal α-p24 antibodies used in the ELISA were obtained from the NIH AIDS Reagent Program.” left out, “55-63). […]” for “55-63).”

[8] = MTT cell viability in Jurkat replication assay; type: cell-based; conditions: human, Jurkat (E6-1) cells, pH 7.4; Jurkat infectivity assay; read-out: TC50 (MTT cell viability)
Experimental: as §2

[9] = test system: clinical isolates of HIV-1; experiment: HIV-1 replication assay in PBMCs, p24 ELISA; type: cell-based
Experimental: HIV-1 replication assay in PBMCs. Virus isolates were obtained from the NIH AIDS Reagent Program. Human PBMCs, seronegative for HIV and hepatitis B virus (Astarte Biologics, LLC) were stimulated in R-3 medium (RPMI 1640 medium with 25 mM HEPES and L-glutamine, 20% heat-inactivated fetal bovine serum, 1% penicillin/streptomycin, 201U/mL IL-2) with 5 µg/mL phytohemagglutinin (PHA-P) for 48 to 72 h. Stimulated PBMCs were resuspended and diluted in fresh R-3 medium and added to 96-well plates at 5×10^4 cells/well. The 50% tissue culture infective dose (TCID50) of each virus stock was measured by end-point dilution assay described by Reed and Muench (Reed, L. J., and Muench, H. (1938) American Journal of Hygiene 27, 493-497). Spinoculation (1,200×g, 2 hrs) was applied to improve the efficiency of infection.
Cells were infected with 40 TCID50s of virus stock under spinoculation in the presence of different concentrations of test compounds (biological quintuplicate wells/concentration) and incubated at 37° C., 5% CO2 for 7 days. On day 4, half of the supernatant was removed and replaced with fresh R-3 medium containing the appropriate concentration of test compounds. On day 7, cell-free supernantant samples were collected for analysis of p24 antigen expression measured by ELISA described above. Antiviral activity was assessed by the inhibition of p24 expression (Reed, L. J., and Muench, H. (1938) American Journal of Hygiene 27, 493-497.

[10] = test system: HIV-1 provirus in U1 cells; experiment: U1 activation (latency) assay, p24 ELISA; type: cell-based; conditions: for IC50: Human immunodeficiency virus 1
Summary of the method: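 PHA-activated U1 cells (latent integrated HIV-1 provirus, 250,000/well) treated with compound at final 1 to 10,000 nM for 3 days; virus production measured by p24 ELISA of cell-free supernatant. Cell viability assessed by MTT in parallel cultures.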

## NC(=O)c1cc2c(-c3ccc4c(c3)CCO4)cncc2s1 [Compound 4e, 4-(2,3-dihydro-1-benzofuran-5-yl)thieno[2,3-c]pyridine-2-carboxamide]
[1]
  EC50: 100 to 500 nM
[2]
  half-life: 18 min
[3]
  Papp: 66.6 ×10⁻⁶ cm/s
[4]; Human immunodeficiency virus 1, NL43, Jurkat, FIG. 17, first pair of values, read-out: IC50 NL4-3 control
  IC50: 6.2 nM
[4]; Human immunodeficiency virus 1, NL43, Jurkat, FIG. 17, second pair of values ('Notably'), read-out: IC50 control
  IC50: 25.9 nM
[4]; Human immunodeficiency virus 1, NL43, Jurkat, Table 2, NL4-3, read-out: Jurkat HIV-1 replication assay
  IC50: < 100 nM
[4]; Human immunodeficiency virus 1, NL43, Jurkat, read-out: IC50 in the HIV replication assay
  IC50: 4 nM
[4]; Human immunodeficiency virus 1, NL43, Jurkat cells, wild type virus, Vpu experiment (FIG. 10), read-out: IC50 value for isolate NL4-3
  IC50: 5 nM
[5]; Human immunodeficiency virus 1, read-out: IC50 A7854G mutant
  IC50: 218 nM
[5]; Human immunodeficiency virus 1, read-out: IC50 resistant-virus
  IC50: 5.1 nM
[6]
  solubility: 0.28 µM (≈ 0.083 µg/mL)
[7]
  IC50: 150 nM
[8]
  CC50: < 40000 nM
[9]; Human immunodeficiency virus 1, BAL, CCR5, PBMC, viral isolate Ba-L, coreceptor CCR5
  IC50: < 100 nM
[9]; Human immunodeficiency virus 1, CCR5, PBMC, viral isolate 92HT593, coreceptor CXCR4, CCR5
  IC50: < 100 nM
[9]; Human immunodeficiency virus 1, CCR5, PBMC, viral isolate 92TH014, coreceptor CCR5
  IC50: < 100 nM
[9]; Human immunodeficiency virus 1, CCR5, PBMC, viral isolate 93BR021, coreceptor CCR5
  IC50: < 100 nM
[9]; Human immunodeficiency virus 1, CCR5, PBMC, viral isolate 93BR028, coreceptor CCR5
  IC50: < 100 nM
[9]; Human immunodeficiency virus 1, PBMC, PBMC, viral isolate 92HT599, coreceptor CXCR4
  IC50: < 100 nM
[9]; Human immunodeficiency virus 1, PBMC, PBMC, viral isolate 92UG005, coreceptor CXCR4
  IC50: < 100 nM
[9]; Human immunodeficiency virus 1, PBMC, PBMC, viral isolate LAI, coreceptor CXCR4
  IC50: 100 to 500 nM
[10]
  potency in the U1 assay: low-nM potency
[10]; Table 2, read-out: U1 cell IC50
  IC50: < 100 nM
[10]; read-out: IC50 in the U1 assay
  IC50: 9 nM
